Values quoted from earlier work, collected in patent publication US20260355142A1, “AMORPHOUS OTE[…] COMPOSITIONS AND USES THEREOF AND DOSAGE REGIMENS FOR OTENAPROXESUL” (ANTIBE THERAPEUTICS INC., priority 2022, published 2026).

Details: efficacious dose of naproxen, known in the art; cited from earlier work

## COc1ccc2cc([C@H](C)C(=O)O)ccc2c1 [naproxen, (2S)-2-(6-methoxynaphthalen-2-yl) propanoic acid]
  patients with noticeable GI injury: approximately 30%
